In US12447153B2, “HER2 mutation inhibitors” (Array BioPharma Inc., priority 2021, dated 2025) one finds IC50 and efflux ratio data, which are given here for 21 molecules.

pIC50: −log10 of the molar value.

For one data set, the target named is ErbB2 WT (Homo sapiens (Human), UniProt P04626). The data set can be described thus: ErbB Enzyme Assay (HTRF KinEASE-TK), Assay 2. Type of data set: biochemical.
The target in a further data set is EGFR (Homo sapiens (Human), UniProt P00533). As to the kind of experiment: ErbB Enzyme Assay (HTRF KinEASE-TK), Assay 3. Type of data set: biochemical. On the technique in general: Time-resolved FRET reads energy transfer from a long-lived donor to a nearby acceptor.
Data set [1] has as its target ErbB2 with Exon 20 YVMA insertion (HER2-YVMA) (Homo sapiens (Human), UniProt P04626, INS775YVMA). The data set can be described thus: Cellular Phosphorylation Assay, Assay 4 (constitutive ErbB2 phosphorylation, NIH 3T3 cells). Type of data set: cell-based.
The target in a further data set is EGFR wild type (EGFR WT) (Homo sapiens (Human), UniProt P00533). As to the kind of experiment: Cellular Phosphorylation Assay, Assay 5 (EGF-stimulated EGFR phosphorylation, NIH 3T3 cells). Type of data set: cell-based.
EGFR wild type (EGFR WT), sequence (P00533 25-1210): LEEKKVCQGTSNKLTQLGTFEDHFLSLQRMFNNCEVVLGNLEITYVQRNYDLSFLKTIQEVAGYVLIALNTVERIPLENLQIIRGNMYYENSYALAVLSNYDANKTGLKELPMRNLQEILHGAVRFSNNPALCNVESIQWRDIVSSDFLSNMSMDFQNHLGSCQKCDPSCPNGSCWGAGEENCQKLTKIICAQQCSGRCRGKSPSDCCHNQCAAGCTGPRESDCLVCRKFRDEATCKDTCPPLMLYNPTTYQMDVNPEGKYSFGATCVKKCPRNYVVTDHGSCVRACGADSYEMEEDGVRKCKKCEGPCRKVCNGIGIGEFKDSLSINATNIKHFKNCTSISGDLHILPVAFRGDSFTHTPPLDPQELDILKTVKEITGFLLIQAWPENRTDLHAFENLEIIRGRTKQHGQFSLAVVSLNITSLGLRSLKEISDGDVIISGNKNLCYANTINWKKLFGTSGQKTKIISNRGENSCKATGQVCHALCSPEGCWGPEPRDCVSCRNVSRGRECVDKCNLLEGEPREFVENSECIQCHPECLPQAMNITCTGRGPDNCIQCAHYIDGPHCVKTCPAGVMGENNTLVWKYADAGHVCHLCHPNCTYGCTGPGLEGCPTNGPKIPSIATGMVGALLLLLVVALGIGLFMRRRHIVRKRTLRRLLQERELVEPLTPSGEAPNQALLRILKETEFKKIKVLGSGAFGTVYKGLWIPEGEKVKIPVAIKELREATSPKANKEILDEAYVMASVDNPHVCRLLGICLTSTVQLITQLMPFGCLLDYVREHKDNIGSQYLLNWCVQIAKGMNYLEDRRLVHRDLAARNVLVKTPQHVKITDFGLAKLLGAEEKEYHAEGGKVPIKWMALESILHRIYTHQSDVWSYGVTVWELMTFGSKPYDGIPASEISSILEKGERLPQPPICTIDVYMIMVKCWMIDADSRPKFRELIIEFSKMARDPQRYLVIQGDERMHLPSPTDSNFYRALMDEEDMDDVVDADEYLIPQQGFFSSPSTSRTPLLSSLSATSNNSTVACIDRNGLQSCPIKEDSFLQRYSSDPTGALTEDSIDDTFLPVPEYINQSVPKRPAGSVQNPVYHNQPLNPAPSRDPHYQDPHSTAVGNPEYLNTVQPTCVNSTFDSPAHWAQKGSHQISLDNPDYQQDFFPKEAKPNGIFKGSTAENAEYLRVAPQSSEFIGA
The next data set addresses BCRP (Homo sapiens (Human), UniProt Q9UNQ0). As to the kind of experiment: BCRP MDCKII efflux assay (Assay 7). It counts as in vitro ADME. The following applies: dog; efflux ratio Papp(B-A)/Papp(A-B), BCRP MDCKII cells; read-out: Assay 7 Pe Ratio. As to the method: Assay conditions included with and without the BCRP-specific inhibitor, KO143, at a concentration of 0.3 μM to ascertain the contribution of BCRP to the efflux value of the test compound.
Final organic concentration in the assay was 1%.

Where [2] appears, read: cellular ErbB2 YVMA phosphorylation.
Where [3] appears, read: cellular EGFR WT phosphorylation, EGF-stimulated.
Where [4] appears, read: EGF-stimulated EGFR WT phosphorylation.

ErbB2 WT, sequence (P04626 23-1255): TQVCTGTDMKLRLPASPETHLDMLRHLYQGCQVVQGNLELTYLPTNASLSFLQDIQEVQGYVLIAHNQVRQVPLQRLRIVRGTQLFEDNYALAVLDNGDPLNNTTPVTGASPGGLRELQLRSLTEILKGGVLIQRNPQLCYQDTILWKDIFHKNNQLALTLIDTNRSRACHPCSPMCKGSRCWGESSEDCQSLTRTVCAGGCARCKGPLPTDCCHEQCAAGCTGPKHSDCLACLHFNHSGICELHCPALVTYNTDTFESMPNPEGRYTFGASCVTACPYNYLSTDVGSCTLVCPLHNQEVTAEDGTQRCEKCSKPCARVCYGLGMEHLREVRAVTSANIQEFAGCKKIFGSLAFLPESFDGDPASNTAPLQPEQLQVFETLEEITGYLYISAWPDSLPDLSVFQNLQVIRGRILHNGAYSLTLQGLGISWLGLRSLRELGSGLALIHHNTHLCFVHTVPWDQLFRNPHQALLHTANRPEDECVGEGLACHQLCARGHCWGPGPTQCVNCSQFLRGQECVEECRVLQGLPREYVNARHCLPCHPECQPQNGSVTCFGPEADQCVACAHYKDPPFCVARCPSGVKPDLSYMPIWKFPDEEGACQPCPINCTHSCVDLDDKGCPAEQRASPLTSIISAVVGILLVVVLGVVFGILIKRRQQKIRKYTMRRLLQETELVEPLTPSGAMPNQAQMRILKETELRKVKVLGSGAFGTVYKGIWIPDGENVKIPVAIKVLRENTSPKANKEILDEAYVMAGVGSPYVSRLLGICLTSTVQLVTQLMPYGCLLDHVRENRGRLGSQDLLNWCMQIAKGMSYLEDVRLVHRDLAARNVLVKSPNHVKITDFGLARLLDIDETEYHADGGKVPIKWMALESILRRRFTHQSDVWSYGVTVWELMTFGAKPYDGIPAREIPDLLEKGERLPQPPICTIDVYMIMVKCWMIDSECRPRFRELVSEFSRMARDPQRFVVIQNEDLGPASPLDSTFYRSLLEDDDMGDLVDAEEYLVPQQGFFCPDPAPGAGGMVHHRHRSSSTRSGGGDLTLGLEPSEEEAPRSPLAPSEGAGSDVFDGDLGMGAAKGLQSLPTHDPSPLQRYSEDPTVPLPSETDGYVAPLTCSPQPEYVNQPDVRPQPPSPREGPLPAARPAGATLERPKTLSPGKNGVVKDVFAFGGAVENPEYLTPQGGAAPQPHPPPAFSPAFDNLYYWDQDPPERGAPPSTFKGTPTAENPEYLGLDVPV
ErbB2 with Exon 20 YVMA insertion (HER2-YVMA), sequence (P04626 other isoform, or with tags, fused parts or gaps ins YVMA behind 775): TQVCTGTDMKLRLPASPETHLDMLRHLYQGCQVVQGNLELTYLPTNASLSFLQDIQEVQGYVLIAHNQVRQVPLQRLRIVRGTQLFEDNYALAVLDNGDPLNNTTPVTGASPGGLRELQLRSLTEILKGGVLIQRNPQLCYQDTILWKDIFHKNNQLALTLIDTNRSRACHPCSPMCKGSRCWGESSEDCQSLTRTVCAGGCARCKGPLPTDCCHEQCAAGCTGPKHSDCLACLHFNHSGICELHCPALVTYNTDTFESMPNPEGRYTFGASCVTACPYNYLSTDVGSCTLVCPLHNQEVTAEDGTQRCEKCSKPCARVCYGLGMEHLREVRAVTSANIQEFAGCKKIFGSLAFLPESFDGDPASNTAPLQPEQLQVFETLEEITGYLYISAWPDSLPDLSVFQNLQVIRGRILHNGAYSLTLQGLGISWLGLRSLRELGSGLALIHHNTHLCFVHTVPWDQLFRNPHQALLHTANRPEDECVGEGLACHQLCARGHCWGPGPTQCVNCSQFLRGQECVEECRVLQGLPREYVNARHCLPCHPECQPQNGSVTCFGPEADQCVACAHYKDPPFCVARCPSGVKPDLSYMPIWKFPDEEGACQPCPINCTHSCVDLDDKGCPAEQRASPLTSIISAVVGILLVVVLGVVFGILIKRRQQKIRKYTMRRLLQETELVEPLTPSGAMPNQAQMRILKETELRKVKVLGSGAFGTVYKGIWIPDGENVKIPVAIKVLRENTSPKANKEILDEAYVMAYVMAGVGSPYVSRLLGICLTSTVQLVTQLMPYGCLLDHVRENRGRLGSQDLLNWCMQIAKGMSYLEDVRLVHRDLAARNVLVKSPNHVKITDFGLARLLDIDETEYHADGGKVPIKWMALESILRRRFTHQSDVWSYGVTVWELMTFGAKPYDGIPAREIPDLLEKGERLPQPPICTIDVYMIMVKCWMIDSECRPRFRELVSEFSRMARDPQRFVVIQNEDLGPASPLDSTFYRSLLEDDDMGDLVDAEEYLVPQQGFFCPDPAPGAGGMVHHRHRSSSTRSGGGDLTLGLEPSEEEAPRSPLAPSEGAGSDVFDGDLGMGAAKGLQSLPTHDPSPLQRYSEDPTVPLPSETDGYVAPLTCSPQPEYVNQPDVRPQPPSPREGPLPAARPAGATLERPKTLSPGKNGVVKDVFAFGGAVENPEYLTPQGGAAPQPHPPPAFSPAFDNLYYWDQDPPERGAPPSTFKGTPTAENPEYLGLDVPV
BCRP, sequence (Q9UNQ0 whole entry): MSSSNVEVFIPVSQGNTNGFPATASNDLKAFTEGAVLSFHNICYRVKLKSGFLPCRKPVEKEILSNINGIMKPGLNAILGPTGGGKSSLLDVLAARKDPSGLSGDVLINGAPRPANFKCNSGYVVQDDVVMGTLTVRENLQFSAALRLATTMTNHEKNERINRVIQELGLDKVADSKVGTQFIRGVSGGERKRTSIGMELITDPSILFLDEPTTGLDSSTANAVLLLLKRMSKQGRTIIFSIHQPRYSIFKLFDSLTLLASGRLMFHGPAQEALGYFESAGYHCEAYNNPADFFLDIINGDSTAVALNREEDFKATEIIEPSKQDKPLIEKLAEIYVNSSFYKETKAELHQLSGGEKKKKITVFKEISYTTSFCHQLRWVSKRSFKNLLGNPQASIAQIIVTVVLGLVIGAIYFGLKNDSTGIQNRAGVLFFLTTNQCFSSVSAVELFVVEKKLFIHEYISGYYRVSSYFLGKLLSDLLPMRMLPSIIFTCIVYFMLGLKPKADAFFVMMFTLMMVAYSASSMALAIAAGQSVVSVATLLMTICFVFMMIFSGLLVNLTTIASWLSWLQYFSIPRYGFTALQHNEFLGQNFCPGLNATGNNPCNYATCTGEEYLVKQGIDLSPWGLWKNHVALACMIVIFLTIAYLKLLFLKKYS

Take `C#CC1CN(c2ccc3ncnc(Nc4ccc(Oc5ccn6ncnc6c5)c(C)c4F)c3n2)CCN1C(=O)C=C` (stereo not drawn) [Example 322]: the pIC50 (in general, −log10 of the IC50, conventionally taken in molar units) against ErbB2 WT (ErbB2 WT enzyme assay) is 8.09; on EGFR (EGFR enzyme assay) it was 6.31; in data set [1] (setting [2]) it was 7.82; against EGFR wild type (EGFR WT) (setting [3]), 6.37. The efflux ratio at 2 h, 1 µM at BCRP is 11.3.
With `C=CC(=O)N1C[C@@H]2C[C@H]1CN(c1ccc3ncnc(Nc4cc(Cl)c(Oc5ccc6c(c5)ncn6C)cc4F)c3n1)C2` [Example 248], the pIC50 is 6.96 against ErbB2 WT (ErbB2 WT enzyme), at most 5.00 against EGFR (EGFR enzyme), 7.84 in data set [1] (ErbB2 YVMA phosphorylation) and at most 5.30 on EGFR wild type (EGFR WT) (setting [4]). Besides, the efflux ratio at 2 h, 1 µM on BCRP worked out at 15.2.
Turning to `C=CC(=O)N1C[C@H]2C[C@@H]1CN2c1ccc2ncnc(Nc3ccc(Oc4ccn5ncnc5c4)c(C)c3F)c2n1` [Example 94, 1-((1R,4R)-5-(4-((4-([1,2,4]triazolo[1,5-a]pyridin-7-yloxy)-2-fluoro-3-methylphenyl)amino)pyrido[3,2-d]pyrimidin-6-yl)-2,5-diazabicyclo[2.2.1]heptan-2-yl)prop-2-en-1-one], the pIC50 at ErbB2 WT (ErbB2 WT enzyme) is 6.77; against EGFR (EGFR enzyme) it was at most 5.00; in data set [1] (ErbB2 YVMA phosphorylation), 7.51; at EGFR wild type (EGFR WT) (setting [4]) it was at most 5.30. On BCRP, the efflux ratio at 2 h, 1 µM worked out at 6.8.
For `C=CC(=O)N1CCC2CN(c3ccc4ncnc(Nc5ccc(Oc6ccn7ncnc7c6)c(Cl)c5)c4n3)CC21` (stereo not drawn) [Example 70, 1-(5-(4-((4-([1,2,4]triazolo[1,5-a]pyridin-7-yloxy)-3-chlorophenyl)amino)pyrido[3,2-d]pyrimidin-6-yl)hexahydropyrrolo[3,4-b]pyrrol-1(2H)-yl)prop-2-en-1-one], the pIC50 on ErbB2 WT (ErbB2 WT enzyme) is 8.00; on EGFR (EGFR enzyme) it was 5.53; in data set [1] (ErbB2 YVMA phosphorylation) it was 7.67; against EGFR wild type (EGFR WT) (setting [4]), at most 5.30. Further, the efflux ratio at 2 h, 1 µM at BCRP was determined as 41.8.
As for `C=CC(=O)N1CCN(c2ccc3ncnc(Nc4ccc(Oc5cnc6c(c5)ncn6C)c(C)c4F)c3n2)C[C@@H]1C` [Example 437], the pIC50 against ErbB2 WT (ErbB2 WT enzyme assay) is 6.83; on EGFR (EGFR enzyme assay), 5.01; in data set [1] (setting [2]), 7.73; on EGFR wild type (EGFR WT) (setting [3]), 5.31. In addition, the efflux ratio at 2 h, 1 µM on BCRP worked out at 9.3.
Consider `C=CC(=O)N1CC2CCC(C1)N2c1ccc2ncnc(Nc3ccc(Oc4ccn5ncnc5c4)c(C)c3F)c2n1` [Example 455], for which the pIC50 against ErbB2 WT (ErbB2 WT enzyme assay) is 8.39; at EGFR (EGFR enzyme assay), 7.06; in data set [1] (setting [2]), 8.32; against EGFR wild type (EGFR WT) (setting [3]) it was 6.71. In addition, the efflux ratio at 2 h, 1 µM on BCRP came to 9.6.
Turning to `C=CC(=O)N1CCC(Oc2nc3c(Nc4ccc(Oc5ccc6cn(C)nc6c5)c(C)c4)ncnc3cc2OC)CC1` [Example 157, 1-(4-((7-methoxy-4-((3-methyl-4-((2-methyl-2H-indazol-6-yl)oxy)phenyl)amino)pyrido[3,2-d]pyrimidin-6-yl)oxy)piperidin-1-yl)prop-2-en-1-one], the pIC50 against ErbB2 WT (ErbB2 WT enzyme) is 6.68; at EGFR (EGFR enzyme), 5.64; in data set [1] (ErbB2 YVMA phosphorylation), 7.67; against EGFR wild type (EGFR WT) (setting [4]), 5.76. The efflux ratio at 2 h, 1 µM on BCRP stood at 6.8.
Regarding `C=CC(=O)N1C2CC1CN(c1ccc3ncnc(Nc4ccc(Oc5ccc6c(c5)ncn6C)c(Cl)c4F)c3n1)C2` [Example 325], the pIC50 against ErbB2 WT (ErbB2 WT enzyme assay) is 7.67; on EGFR (EGFR enzyme assay), 6.59; in data set [1] (setting [2]) it was 7.94; against EGFR wild type (EGFR WT) (setting [3]), 6.26. Further, the efflux ratio at 2 h, 1 µM on BCRP stood at 10.3.
For `C=CC(=O)N1CC2CCC(C1)N2c1ccc2ncnc(Nc3cc(Cl)c(Oc4ccn5ncnc5c4)cc3F)c2n1` [Example 441], in that order: 7.51, 6.17, 7.75, 6.11 and 7.3.
`C=CC(=O)N1CCCN(c2ccc3ncnc(Nc4ccc(Oc5cnc6c(c5)ncn6C)c(C)c4)c3n2)CC1` [Example 114, 1-(4-(4-((3-methyl-4-((3-methyl-3H-imidazo[4,5-b]pyridin-6-yl)oxy)phenyl)amino)pyrido[3,2-d]pyrimidin-6-yl)-1,4-diazepan-1-yl)prop-2-en-1-one]: the pIC50 is 6.59 at ErbB2 WT (ErbB2 WT enzyme), at most 5.00 against EGFR (EGFR enzyme), 7.52 in data set [1] (ErbB2 YVMA phosphorylation) and at most 5.30 on EGFR wild type (EGFR WT) (setting [4]). In addition, the efflux ratio at 2 h, 1 µM at BCRP was found to be 23.5.
On to `C=CC(=O)N1[C@@H]2CC[C@H]1C[C@H](c1ccc3ncnc(Nc4ccc(Oc5ccc6c(c5)ncn6C)c(C)c4F)c3n1)C2` [Example 195, 1-((1R,3s,5S)-3-(4-((2-fluoro-3-methyl-4-((1-methyl-1H-benzo[d]imidazol-5-yl)oxy)phenyl)amino)pyrido[3,2-d]pyrimidin-6-yl)-8-azabicyclo[3.2.1]octan-8-yl)prop-2-en-1-one], for which the pIC50 at ErbB2 WT (ErbB2 WT enzyme) was 7.22; at EGFR (EGFR enzyme) it was 5.59; in data set [1] (ErbB2 YVMA phosphorylation) it was 7.75; against EGFR wild type (EGFR WT) (setting [4]) it was 5.97. For the same molecule, the efflux ratio at 2 h, 1 µM at BCRP worked out at 1.7.
As to `C=CC(=O)N1C2CC1CN(c1ccc3ncnc(Nc4cc(C)c(Oc5ccc6c(c5)ncn6C)cc4F)c3n1)C2` [Example 48, 1-(3-(4-((2-fluoro-5-methyl-4-((1-methyl-1H-benzo[d]imidazol-5-yl)oxy)phenyl)amino)pyrido[3,2-d]pyrimidin-6-yl)-3,6-diazabicyclo[3.1.1]heptan-6-yl)prop-2-en-1-one], the pIC50 was 6.58 against ErbB2 WT (ErbB2 WT enzyme), at most 5.00 against EGFR (EGFR enzyme), 7.78 in data set [1] (ErbB2 YVMA phosphorylation) and at most 5.30 on EGFR wild type (EGFR WT) (setting [4]). Besides, the efflux ratio at 2 h, 1 µM on BCRP worked out at 10.2.
As for `C=CC(=O)N1C[C@H]2C[C@@H]1CN(c1ccc3ncnc(Nc4cc(Cl)c(Oc5cnc6c(c5)ncn6C)cc4F)c3n1)C2` [Example 294], the pIC50 against ErbB2 WT (ErbB2 WT enzyme assay) was 5.93; on EGFR (EGFR enzyme assay) it was at most 5.00; in data set [1] (setting [2]), 7.65; at EGFR wild type (EGFR WT) (setting [3]), at most 5.30. The efflux ratio at 2 h, 1 µM on BCRP came to 7.2.
With `C=CC(=O)N1C[C@H]2CC[C@@H]1CN2c1ccc2ncnc(Nc3ccc(Oc4ccn5ncnc5c4)c(Cl)c3F)c2n1` [Example 328], the negative logarithm of the IC50 (pIC50) was 7.30 on ErbB2 WT (ErbB2 WT enzyme assay), 6.16 on EGFR (EGFR enzyme assay), 7.80 in data set [1] (setting [2]) and 5.82 at EGFR wild type (EGFR WT) (setting [3]). For the same molecule, at BCRP, the efflux ratio at 2 h, 1 µM was determined as 7.7.
In the case of `C=CC(=O)N1CCC[C@@H](c2ccc3ncnc(Nc4ccc(Oc5ccc6c(c5)ncn6C)c(C)c4)c3n2)C1` (racemic) [Example 35, 1-(3-(4-((3-methyl-4-((1-methyl-1H-benzo[d]imidazol-5-yl)oxy)phenyl)amino)pyrido[3,2-d]pyrimidin-6-yl)piperidin-1-yl)prop-2-en-1-one], the pIC50 on ErbB2 WT (ErbB2 WT enzyme) was 8.21; at EGFR (EGFR enzyme), 5.85; in data set [1] (ErbB2 YVMA phosphorylation), 7.98; at EGFR wild type (EGFR WT) (setting [4]), 5.56. In addition, the efflux ratio at 2 h, 1 µM at BCRP stood at 2.7.
On to `C=CC(=O)N1CCCN(c2ccc3ncnc(Nc4ccc(Oc5ccn6ncnc6c5)c(Cl)c4F)c3n2)CC1` [Example 98, 1-(4-(4-((4-([1,2,4]triazolo[1,5-a]pyridin-7-yloxy)-3-chloro-2-fluorophenyl)amino)pyrido[3,2-d]pyrimidin-6-yl)-1,4-diazepan-1-yl)prop-2-en-1-one], for which the pIC50 was 7.29 at ErbB2 WT (ErbB2 WT enzyme), 5.47 on EGFR (EGFR enzyme), 7.72 in data set [1] (ErbB2 YVMA phosphorylation) and 5.57 against EGFR wild type (EGFR WT) (setting [4]). Also, on BCRP, the efflux ratio at 2 h, 1 µM was found to be 11.
Take `C=CC(=O)N1CCCC[C@@H](c2ccc3ncnc(Nc4cc(C)c(Oc5ccc6c(c5)ncn6C)cc4F)c3n2)C1` (racemic) [Example 137, rac-(R)-1-(3-(4-((2-fluoro-5-methyl-4-((1-methyl-1H-benzo[d]imidazol-5-yl)oxy)phenyl)amino)pyrido[3,2-d]pyrimidin-6-yl)azepan-1-yl)prop-2-en-1-one]: the pIC50 at ErbB2 WT (ErbB2 WT enzyme) is 7.55; against EGFR (EGFR enzyme) it was 5.58; in data set [1] (ErbB2 YVMA phosphorylation), 7.77; against EGFR wild type (EGFR WT) (setting [4]), 5.36. In addition, on BCRP, the efflux ratio at 2 h, 1 µM amounted to 1.9.
For `C=CC(=O)N1CCN(c2ccc3ncnc(Nc4ccc(Oc5ccn6ncnc6c5)c(C)c4)c3n2)CC1(C)C` [Example 77, 1-(4-(4-((4-([1,2,4]triazolo[1,5-a]pyridin-7-yloxy)-3-methylphenyl)amino)pyrido[3,2-d]pyrimidin-6-yl)-2,2-dimethylpiperazin-1-yl)prop-2-en-1-one] the same measures were 8.05, 5.59, 8.03, 6.06 and 11.6.
In the case of `C=CC(=O)N1CC(c2ccc3ncnc(Nc4ccc(Oc5ccn6ncnc6c5)c(C)c4F)c3n2)C1` [Example 280], the pIC50 against ErbB2 WT (ErbB2 WT enzyme assay) is 7.30; at EGFR (EGFR enzyme assay), 5.68; in data set [1] (setting [2]), 7.68; against EGFR wild type (EGFR WT) (setting [3]) it was 5.72. Besides, on BCRP, the efflux ratio at 2 h, 1 µM stood at 8.7.
Consider `C=CC(=O)N1CCN(c2ccc3ncnc(Nc4ccc(Oc5ccn6ncnc6c5)c(C)c4F)c3n2)C[C@@H]1COC` [Example 362], for which the pIC50 is 8.01 against ErbB2 WT (ErbB2 WT enzyme assay), 5.97 at EGFR (EGFR enzyme assay), 8.26 in data set [1] (setting [2]) and 6.09 on EGFR wild type (EGFR WT) (setting [3]). Further, at BCRP, the efflux ratio at 2 h, 1 µM came out at 7.4.
Take `C=CC(=O)N1CCN(c2ccc3ncnc(Nc4ccc(Oc5ccc6c(c5)ncn6C)c(C(F)F)c4)c3n2)CC1` [Example 447]: the pIC50 against ErbB2 WT (ErbB2 WT enzyme assay) was 7.53; against EGFR (EGFR enzyme assay), at most 5.00; in data set [1] (setting [2]), 7.76; at EGFR wild type (EGFR WT) (setting [3]), at most 5.30. Moreover, the efflux ratio at 2 h, 1 µM at BCRP was 20.3.
